# Results reported in article PMC9354638, “Targeting p21-activated kinase 4 (PAK4) with pyrazolo[3,4-d]pyrimidine derivative SPA7012 attenuates hepatic ischaemia-reperfusion injury in mice” (Journal of Enzyme Inhibition and Medicinal Chemistry, 2022).
# Experiments:
# [1] = system: Nrf2 transcriptional activity (ARE); assay: Nrf2 reporter gene assay (ARE luciferase) in HEK293T cells; format: cell-based, human; details: 24 h transfection
# Method: (§1) The human embryonic kidney cell line HEK293T was obtained from the American Type Culture Collection (Manassas, VA, USA). For the Nrf2 reporter gene assay, 1 μg of a plasmid containing a promoter with an ARE driving luciferase expression was used. Exogenous proteins were expressed by transfecting HEK293T cells with 1 μg of Nrf2 and PAK4 with Lipofectamine 3000 (Invitrogen, Carlsbad, CA, USA). Luciferase activity was measured using a Dual-Luciferase Reporter Assay (Promega, Madison, WI, USA) by Lumat LB 9507 (Berthold, Bad Wildbad, Germany).
# [2] = system: PAK4-mediated phosphorylation of Nrf2; assay: Co-IP analysis of PAK4-mediated Nrf2 phosphorylation in HEK293T cells; format: cell-based, human; details: HEK293T cells overexpressing Nrf2 and PAK4, 24 h transfection
# Method: as §1
# Nuclear and cytoplasmic fractions were prepared using the NE-PER Nuclear and Cytoplasmic Extraction kit (Thermo Fisher Scientific, Waltham, MA, USA). Tissue homogenates or cell lysates (15 μg) were separated by 6–14% SDS-PAGE and transferred to PVDF membranes. […] Immunoreactive bands were detected with a Las-4000 imager (GE Healthcare Life Science, Pittsburgh, PA, USA).
smiles,measurement,setting,value
"Cc1nn(-c2cccc(C#CC3(O)CCCCC3)c2)c2ncnc(N)c12 [Compound 14b, 3-(4-Amino-3-methylpyrazolo[3,4-d]pyrimidin-1-yl)phenylethynylcyclohexan-1-ol]",Nrf2 transcriptional activity (ARE luciferase activity),[1],increased
same,PAK4-mediated phosphorylation of Nrf2 at threonine residue,[2],effectively inhibited
